Measurements published in US8426437B2, “Pyrroloquinoline derivatives and their use as protein kinases inhibitors” (Pierre Fabre Medicament, priority 2005, dated 2013).
Structures can show the parent of a compound that is named as a salt.

These compounds were tested against T1, RET (Homo sapiens, UniProt P07949) (assay: Inhibition of RET kinase activity, recombinant RET method (Kinase-Glo)). Details: RET 2 μg/ml, poly-EY4 substrate, 20 μM ATP, two hours at 30° C.
T1 construct: purchased Upstate 14-570MG
T1 sequence (P07949 29-1114): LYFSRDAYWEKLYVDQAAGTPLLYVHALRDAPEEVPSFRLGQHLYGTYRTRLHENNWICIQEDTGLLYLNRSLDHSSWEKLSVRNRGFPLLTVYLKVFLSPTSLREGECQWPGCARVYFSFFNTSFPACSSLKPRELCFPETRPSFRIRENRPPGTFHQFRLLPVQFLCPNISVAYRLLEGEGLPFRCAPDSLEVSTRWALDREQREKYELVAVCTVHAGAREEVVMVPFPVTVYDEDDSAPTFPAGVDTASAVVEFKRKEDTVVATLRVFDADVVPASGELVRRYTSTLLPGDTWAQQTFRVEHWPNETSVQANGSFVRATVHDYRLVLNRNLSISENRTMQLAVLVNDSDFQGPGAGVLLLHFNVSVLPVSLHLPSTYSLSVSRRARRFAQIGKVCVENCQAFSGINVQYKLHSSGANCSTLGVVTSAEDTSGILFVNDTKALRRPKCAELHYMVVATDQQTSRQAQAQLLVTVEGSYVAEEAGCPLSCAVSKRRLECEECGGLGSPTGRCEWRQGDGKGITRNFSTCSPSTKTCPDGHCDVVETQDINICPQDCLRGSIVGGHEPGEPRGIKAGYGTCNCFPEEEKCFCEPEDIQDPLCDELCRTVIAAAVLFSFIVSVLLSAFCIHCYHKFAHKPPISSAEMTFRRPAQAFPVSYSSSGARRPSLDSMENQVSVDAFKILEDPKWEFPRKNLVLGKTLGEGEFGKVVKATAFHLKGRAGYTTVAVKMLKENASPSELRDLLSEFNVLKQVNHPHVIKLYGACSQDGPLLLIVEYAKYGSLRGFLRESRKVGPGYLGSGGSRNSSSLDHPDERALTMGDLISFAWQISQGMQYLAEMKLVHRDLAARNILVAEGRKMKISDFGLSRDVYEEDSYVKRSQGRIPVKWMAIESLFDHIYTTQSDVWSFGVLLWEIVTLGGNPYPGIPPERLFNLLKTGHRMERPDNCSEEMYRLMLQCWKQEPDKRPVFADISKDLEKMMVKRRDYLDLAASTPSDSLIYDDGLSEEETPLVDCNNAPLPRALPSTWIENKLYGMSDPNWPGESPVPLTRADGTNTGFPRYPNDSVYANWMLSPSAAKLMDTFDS
Format: biochemical
Method in brief: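 Recombinant RET at 2 μg/ml in 20 mM MOPS/NaOH pH 7.0, 1 mM EDTA, 5% glycerol, 0.01% Brij35, 0.1% 2-mercaptoethanol, 1 mg/ml BSA; compounds 10 nM–30 μM final.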

IC50 [nM] | Structure (SMILES)
1000 to 10000 | C#Cc1ccc2[nH]c(=O)c3[nH]cc(C(=O)OCC)c3c2c1 [Compound 199, 8-Ethynyl-4-oxo-4,5-dihydro-3H-pyrrolo[2,3-c]quinoline-1-ethyl carboxylate]
10000 to 100000 | O=C(O)c1c[nH]c2c(=O)[nH]c3ccccc3c12 [Compound 75, 4-oxo-4,5-dihydro-3H-pyrrolo[2,3-c]quinoline-1-carboxylic acid]
100 to 1000 | CCOC(=O)c1c[nH]c2c(=O)[nH]c3ccc(S(=O)(=O)Nc4ccc(OC)cc4)cc3c12 [Compound 9, 8-(4-Methoxy-phenylsulfamoyl)-4-oxo-4,5-dihydro-3H-pyrrolo[2,3-c]quinoline-1-ethyl carboxylate]
10000 to 100000 | CCCNC(=O)c1c[nH]c2c(=O)[nH]c3ccc(S(=O)(=O)N(C)C)cc3c12 [Compound 109, N-Propyl-8-dimethylsulfamoyl-4-oxo-4,5-dihydro-3H-pyrrolo[2,3-c]quinoline-1-carboxamide]
100 to 1000 | CCOC(=O)c1c[nH]c2c(=O)[nH]c3ccc(Sc4ccc(NC(C)=O)cc4)cc3c12 [Compound 223, 8-(4-Acetylaminophenylsulfanyl)-4-oxo-4,5-dihydro-3H-pyrrolo[2,3-c]quinoline-1-ethyl carboxylate]
100 to 1000 | CCOC(=O)c1c[nH]c2c(=O)[nH]c3ccc(CCc4ccccc4)cc3c12 [Compound 207, 4-Oxo-8-phenethyl-4,5-dihydro-3H-pyrrolo[2,3-c]quinoline-1-ethyl carboxylate]
100 to 1000 | CCOC(=O)c1c[nH]c2c(=O)[nH]c3ccc(NS(=O)(=O)Cc4ccccc4)cc3c12 [Compound 39, 4-Oxo-8-phenylmethanesulfonylamino-4,5-dihydro-3H-pyrrolo[2,3-c]quinoline-1-ethyl carboxylate]
1000 to 10000 | CCOC(=O)c1c[nH]c2c(=O)[nH]c3ccc(C(C)=O)cc3c12 [Compound 101, 8-Acetyl-4-oxo-4,5-dihydro-3H-pyrrolo[2,3-c]quinoline-1-ethyl carboxylate]
10000 to 100000 | CCOC(=O)c1c[nH]c2c(=O)[nH]c3ccc(S(=O)(=O)Nc4ccc(N5CCOCC5)cc4)cc3c12 [Compound 22, 8-(4-Morpholin-4-yl-phenylsulfamoyl)-4-oxo-4,5-dihydro-3H-pyrrolo[2,3-c]quinoline-1-ethyl carboxylate]
1000 to 10000 | CCCOC(=O)c1c[nH]c2c(=O)[nH]c3ccc(S(=O)(=O)N(C)CC(=O)O)cc3c12 [Compound 182, 8-(Carboxymethyl-methyl-sulfamoyl)-4-oxo-4,5-dihydro-3H-pyrrolo[2,3-c]quinoline-1-propyl carboxylate]
< 100 | CCCOC(=O)c1c[nH]c2c(=O)[nH]c3ccc(S(=O)(=O)N(C)C4CCOCC4)cc3c12 [Compound 133, 8-[Methyl-(tetrahydro-pyran-4-yl)-sulfamoyl]-4-oxo-4,5-dihydro-3H-pyrrolo[2,3-c]quinoline-1-propyl carboxylate]
100 to 1000 | CCOC(=O)c1c[nH]c2c(=O)[nH]c3ccc(C(=O)/C=C/N(C)C)cc3c12 [Compound 217, 8-(3-Dimethylamino-acryloyl)-4-oxo-4,5-dihydro-3H-pyrrolo[2,3-c]quinoline-1-ethyl carboxylate]
100 to 1000 | CCOC(=O)c1c[nH]c2c(=O)[nH]c3ccc(NS(=O)(=O)c4ccc([N+](=O)[O-])cc4)cc3c12 [Compound 53, 8-(4-Nitro-benzenesulfonylamino)-4-oxo-4,5-dihydro-3H-pyrrolo[2,3-c]quinoline-1-ethyl carboxylate]
1000 to 10000 | CC(C)COC(=O)c1c[nH]c2c(=O)[nH]c3ccc(-c4cccc(S(C)(=O)=O)c4)cc3c12 [Compound 255, 8-(3-Methanesulfonyl-phenyl)-4-oxo-4,5-dihydro-3H-pyrrolo[2,3-c]quinoline-1-isobutyl carboxylate]
10000 to 100000 | O=C(Nc1ccccc1)c1c[nH]c2c(=O)[nH]c3ccccc3c12 [Compound 87, N-(Phenyl)-4-oxo-4,5-dihydro-3H-pyrrolo[2,3-c]quinoline-1-carboxamide]
100 to 1000 | CCOC(=O)c1c[nH]c2c(=O)[nH]c3ccc(Sc4cccc(N)c4)cc3c12 [Compound 224, 8-(3-Aminophenylsulfanyl)-4-oxo-4,5-dihydro-3H-pyrrolo[2,3-c]quinoline-1-ethyl carboxylate]
10000 to 100000 | COC(=O)CCNC(=O)c1c[nH]c2c(=O)[nH]c3ccccc3c12 [Compound 81, 3-[(4-Oxo-4,5-dihydro-3H-pyrrolo[2,3-c]quinoline-1-carbonyl)-amino]-methyl propanoate]
< 100 | CCCOC(=O)c1c[nH]c2c(=O)[nH]c3ccc(S(=O)(=O)N(CCO)C4CC4)cc3c12 [Compound 174, 8-[Cyclopropyl-(2-hydroxy-ethyl)-sulfamoyl]-4-oxo-4,5-dihydro-3H-pyrrolo[2,3-c]quinoline-1-propyl carboxylate]
100 to 1000 | CCOC(=O)c1c[nH]c2c(=O)[nH]c3ccc(N(C)S(C)(=O)=O)cc3c12 [Compound 59, 8-(Methanesulfonyl-methyl-amino)-4-oxo-4,5-dihydro-3H-pyrrolo[2,3-c]quinoline-1-ethyl carboxylate]
100 to 1000 | CCOC(=O)c1c[nH]c2c(=O)[nH]c3ccc(Sc4cccc(NC(C)=O)c4)cc3c12 [Compound 225, 8-(3-Acetylaminophenylsulfanyl)-4-oxo-4,5-dihydro-3H-pyrrolo[2,3-c]quinoline-1-ethyl carboxylate]
1000 to 10000 | CCOC(=O)c1c[nH]c2c(=O)[nH]c3ccc(-c4ccc(S(C)(=O)=O)cc4)cc3c12 [Compound 245, 8-(4-Methanesulfonyl-phenyl)-4-oxo-4,5-dihydro-3H-pyrrolo[2,3-c]quinoline-1-ethyl carboxylate]

Structure (SMILES) | IC50 [nM]
CCOC(=O)c1c[nH]c2c(=O)[nH]c3ccc(S(=O)(=O)NC4CC5CCC(C4)N5)cc3c12 (centres unmarked) [Compound 122, 8-(8-Aza-bicyclo[3.2.1]oct-3-ylsulfamoyl)-4-oxo-4,5-dihydro-3H-pyrrolo[2,3-c]quinoline-1-ethyl carboxylate] | < 100
CCCOC(=O)c1c[nH]c2c(=O)[nH]c3ccc(S(=O)(=O)N4CCC(NC)C4)cc3c12 (centres unmarked) [Compound 168, 8-(3-Methylamino-pyrrolidine-1-sulfonyl)-4-oxo-4,5-dihydro-3H-pyrrolo[2,3-c]quinoline-1-propyl carboxylate hydrochloride] | 100 to 1000
CN(c1ccc(F)cc1)S(=O)(=O)c1ccc2[nH]c(=O)c3[nH]cc(C(=O)OCCCNC(=O)OC(C)(C)C)c3c2c1 [Compound 108, 3-tert-Butoxycarbonylamino-propyl 8-[(4-fluorophenyl)-methyl-sulfamoyl]-4-oxo-4,5-dihydro-3H-pyrrolo[2,3-c]quinoline-1-carboxylate] | 10000 to 100000
CCCOC(=O)c1c[nH]c2c(=O)[nH]c3ccc(S(=O)(=O)N4CC[C@H](NC(=O)OC(C)(C)C)C4)cc3c12 [Compound 164, (S)-8-(3-tert-Butoxycarbonylamino-pyrrolidine-1-sulfonyl)-4-oxo-4,5-dihydro-3H-pyrrolo[2,3-c]quinoline-1-propyl carboxylate] | 1000 to 10000
CCOC(=O)c1c[nH]c2c(=O)[nH]c3ccc(-c4ccc(NC(=O)OC(C)(C)C)cc4)cc3c12 [Compound 243, 8-(4-tert-Butoxycarbonylaminophenyl)-4-oxo-4,5-dihydro-3H-pyrrolo[2,3-c]quinoline-1-ethyl carboxylate] | 1000 to 10000
